Results reported in patent US20120295935A1, “MIXED AMINAL PHARMACEUTICAL COMPOSITIONS AND USES THEREOF” (priority 2010, published 2012).
“Also recorded” adds a separate entry of the source.

Experiments:
[1] = system: MC3T3 cells; assay: Cell proliferation and death; type: cell-based; details: 1 h incubation with 10 nM (mild ER stress)
[2] = system: MC3T3 cells; assay: mRNA expression levels by real-time PCR; type: cell-based, mouse; details: 1-100 nM for 1-24 h
[3] = system: MC3T3 cells; assay: mRNA expression levels by real-time PCR; type: cell-based, mouse
Protocol: Responses to Administration of Thapsigargin—Upregulation of transcription factors linked to bone formation as well as PERK: The effects of 10 nM thapsigargin on mRNA expression levels of ISR-linked genes (ATF4, ATF3, and CHOP) as well as genes involved in bone remodeling (Runx2, Osterix, and Rank1), were examined (FIG. 5). […] Out of 4 transcription factors (ATF4, ATF3, Runx2, and Osterix), the level of ATF4 mRNA was elevated 2-4 fold throughout the treatments. […] The mRNA level of type 1 collagen was elevated 5 h and 10 h for T1h (1 h exposure at 10 nM).
Responses to Administration of Salubrinal—In vitro responses to salubrinal: In order to evaluate the effects of salubrinal, MC3T3 E1 osteoblast-like cells and MLO-A5 osteocyte cells (Barragan-Adjemian, C., et al., “Mechanism by which MLO-A5 late osteoblasts/early osteocytes mineralize in culture: similarities with mineralization of lamellar bone,” Calcif. Tissue Int. 79:340-353 (2006)) were incubated with salubrinal at 100 nM-50 μM for 1-24 h. The mRNA levels of the selected genes, TF4, ATF3, Osteocalcin (OCN), and CHOP, were determined by real-time PCR. […] In MC3T3 cells, for instance, the Osteocalcin mRNA level, which is regulated by ATF4 and Runx2 (Xiao et al. 2005), was elevated 11.8±0.2 fold at 10 μM salubrinal in 24 h.

[4] = system: MC3T3 cells; assay: Phosphorylation of eIF2α kinases (PERK, PKR) and MAP kinases (p-38 MAPK, ERK1/2); type: cell-based, mouse; details: 10 nM, 1 h exposure
Protocol: In response to T1h (1 h exposure at 10 nM), the level of phosphorylation of two eIF2α kinases (PERK and PKR), and two MAP kinases (p-38 MAPK and ERK1/2) was examined (FIG. 6).

[5] = system: MC3T3 E1 osteoblast-like cells; assay: Western blot of eIF2α-p, ATF4, CHOP and caspase 3 proteins in response to thapsigargin; type: cell-based, mouse
Protocol: At higher doses of 10 and 100 nM, the levels of eIF2α-p and ATF4 proteins were elevated (FIG. 3A). Thapsigarin is known to induce apoptosis when administered above a threshold concentration.

C/C=C(/C)C(=O)O[C@H]1C(C)=C2[C@H]([C@@H]1OC(=O)CCCCCCC)[C@@](C)(OC(C)=O)C[C@H](OC(=O)CCC)[C@@]1(O)[C@H]2OC(=O)[C@@]1(C)O [thapsigargin]
numbers of live and dead cells (cell number or mortality) [1]: does not alter; also recorded: no significant difference | Osteocalcin mRNA level [2]: did not increase | ATF3 mRNA level ([3]; 10 nM): 100-1000 times | CHOP mRNA level ([3]; 10 nM): 10-35 fold | Osterix mRNA ([3]; 10 nM): enhanced at 1 h | Runx2 mRNA increase ([3]; 10 nM): started at 3 h and peaked at 5 h | ATF4 mRNA level ([3]; 10 nM, 1, 2 and 3 h exposures): 2-4 fold | Rank1 mRNA ([3]; 3 h for T2h and 10 h for T3h, 10 nM): significantly up | type 1 collagen mRNA level ([3]; 5 h and 10 h for T1h (1 h exposure at 10 nM)): elevated | p-ERK1/2 level [4]: not altered; also recorded: unchanged | p-PERK level [4]: elevated; also recorded: Activation | p-PKR level [4]: not altered; also recorded: unchanged | p-p38 MAPK level [4]: elevated; also recorded: Activation | CHOP protein level ([5]; 10 nM): started to increase after 3 h | Pro-caspase 3 level ([5]; 10 nM): not significantly altered | cleaved caspase 3 (active form) level ([5]; 10 nM): increased after 24 h | ATF4 protein level ([5]; 10 and 100 nM): elevated | eIF2α-p protein level ([5]; 10 and 100 nM): elevated | ATF4 protein level ([5]; lower dosages below 0.1 nM): no detectable upregulation | eIF2α-p protein level ([5]; lower dosages below 0.1 nM): no detectable upregulation
